Ends that are not written are not given here.
Legend:
Malpighian tubules = conditions: reference stimulant; cited from earlier work
Rhopr-CT/DH-R1-B = assay: Bioluminescence (calcium mobilization) assay, HEK293/CNG cells expressing Rhopr-CT/DH-R1-B; format: cell-based, R. prolixus; conditions: luminescence
Source text: (§1) The largest cDNA fragments encoding Rhopr-CT/DH-R1 transcript variants and Rhopr-CT/DH-R2-B were amplified as described earlier (see section: Isolation of cDNA sequences encoding R. prolixus CT/DH receptors). The PCR products from these reactions were used as a template to amplify the ORF and introduce a Kozak translation initiation sequence at the 5´ end using the primers listed in Table S5 in File S1. The resulting products were cloned into pGEM-T Easy vector (Promega, Madison, WI, USA). These were then subcloned into either pIRES2-ZsGreen1 (Clontech, Mountain View, CA, USA) or pcDNA 3.1^+ (Life Technologies Corporation, Carlsbad, CA, USA) for expression in mammalian cells.
(§2) Human embryonic kidney (HEK)-293 cells stably expressing a modified cyclic nucleotide-gated (CNG) channel (HEK293/CNG) (previously available through BD Biosciences, Mississauga, ON, Canada) were used to functionally characterize the receptors. […]
(§3) Bioluminescence assay using CHO/G16 cells was performed as described previously. […] Cells were loaded in each well using an automated injector and the luminescence recorded over 20 seconds using a Wallac Victor2 plate reader (Perkin Elmer, San Diego, CA, USA). […] Dose-response curves were obtained and the EC50 values determined using Prism5 software.

Rhopr-CT/DH-R1-C = assay: Bioluminescence (calcium mobilization) assay, HEK293/CNG cells expressing Rhopr-CT/DH-R1-C; format: cell-based, R. prolixus; conditions: luminescence
Source text: as §1, §2, §3

Rhopr-CT/DH-R2-B = assay: Bioluminescence (calcium mobilization) assay, HEK293/CNG cells expressing Rhopr-CT/DH-R2-B; format: cell-based, R. prolixus; conditions: luminescence
Source text: as §1, §2, §3

Molecule | rate of fluid secretion by MTs (Malpighian tubules) | receptor activation (Rhopr-CT/DH-R1-B) | receptor activation (Rhopr-CT/DH-R1-C) | receptor activation (Rhopr-CT/DH-R2-B)
NCCc1c[nH]c2ccc(O)cc12 [serotonin] | maximum rate |  |  | 
MQRPQGPSLSVANPIEVLRSRLLLEIARRRMKEQDASRVSKNRQYLQQI-NH2 [Rhopr-CRF/DH, R. prolixus corticotropin releasing-factor (CRF)-related diuretic hormone, custom synthesised by GenScript at > 95% purity] | maximum rate | None of these receptors were activated | None of these receptors were activated | None of these receptors were activated
NSELINSLLSLPKNMNDA-NH2 [Drome-PDF, D. melanogaster pigment dispersing factor, custom synthesized by GeneMed Synthesis at > 95% purity] |  | None of these receptors were activated | None of these receptors were activated | None of these receptors were activated
